From the supplement of paper PMC10733146

Experiments:
Assay in all cases: viability relative to DMSO control (fraction); higher = less drug effect (more viable cells)
[1] = tested on: primary AML patient cells (S017); settings: 0.04 µM; 48 h
In short: (§1)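 Using 384-well plates with compounds already plated at five concentrations, one well per concentration, 4 × 10^4 primary mononuclear tumour cells were added per well. Cells were Ficoll-isolated from blood or bone marrow or came from processed lymph node, fresh or cryopreserved. They were kept for 48 h at 37 °C and 5% CO2 in RPMI-1640 supplemented with penicillin/streptomycin, L-glutamine and human serum, and viability was read as CellTiter-Glo luminescence relative to the median of 16 inner DMSO wells.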

[2] = tested on: primary AML patient cells (S009); settings: 0.0016 µM; 48 h
In short: as §1

[3] = tested on: primary MCL patient cells (S053); settings: 48 h
In short: as §1

[4] = tested on: primary AML patient cells (S019); settings: 1 µM; 48 h
In short: as §1

[5] = tested on: primary AML patient cells (S079); settings: 48 h
In short: as §1

[6] = tested on: primary B-PLL patient cells (S016); settings: 48 h
In short: as §1

[7] = tested on: primary AML patient cells (S006); settings: 0.04 µM; 48 h
In short: as §1

[8] = tested on: primary MCL patient cells (S063); settings: 48 h
In short: as §1

[9] = tested on: primary AML patient cells (S044); settings: 1 µM; 48 h
In short: as §1

[10] = tested on: primary AML patient cells (S089); settings: 48 h
In short: as §1

[11] = tested on: primary AML patient cells (S002); settings: 0.04 µM; 48 h
In short: as §1

[12] = tested on: primary AML patient cells (S071); settings: 1 µM; 48 h
In short: as §1

[13] = tested on: primary AML patient cells (S012); settings: 48 h
In short: as §1

[14] = tested on: primary AML patient cells (S021); settings: 48 h
In short: as §1

[15] = tested on: primary FL patient cells (S022); settings: 48 h
In short: as §1

[16] = tested on: primary AML patient cells (S011); settings: 0.2 µM; 48 h
In short: as §1

[17] = tested on: primary AML patient cells (S037); settings: 48 h
In short: as §1

[18] = tested on: primary DLBCL patient cells (S049); settings: 48 h
In short: as §1

[19] = tested on: primary MCL patient cells (S041); settings: 48 h
In short: as §1

[20] = tested on: primary BL patient cells (S005); settings: 48 h
In short: as §1

[21] = tested on: primary AML patient cells (S007); settings: 1 µM; 48 h
In short: as §1

[22] = tested on: primary AML patient cells (S056); settings: 0.008 µM; 48 h
In short: as §1

[23] = tested on: primary MCL patient cells (S068); settings: 48 h
In short: as §1

[24] = tested on: primary T-NHL patient cells (S058); settings: 0.0016 µM; 48 h
In short: as §1

[25] = tested on: primary ALL patient cells (S048); settings: 0.008 µM; 48 h
In short: as §1

[26] = tested on: primary AML patient cells (S055); settings: 0.008 µM; 48 h
In short: as §1

[27] = tested on: primary AML patient cells (S081); settings: 1 µM; 48 h
In short: as §1

[28] = tested on: primary DLBCL patient cells (S076); settings: 0.2 µM; 48 h
In short: as §1

[29] = tested on: primary AML patient cells (S072); settings: 48 h
In short: as §1

[30] = tested on: primary DLBCL patient cells (S082); settings: 48 h
In short: as §1

Compound: C=CC(=O)N1CCC[C@@H](n2nc(-c3ccc(Oc4ccccc4)cc3)c3c(N)ncnc32)C1 [Ibrutinib]
- viability [1]: 1.1
- viability [2]: 0.965
- viability ([3]; 0.0016 µM): 0.591
- viability ([3]; 0.008 µM): 0.57
- viability ([3]; 0.04 µM): 0.595
- viability ([3]; 0.2 µM): 0.588
- viability ([3]; 1 µM): 0.601
- viability [4]: 1
- viability ([5]; 0.04 µM): 0.879
- viability ([5]; 0.2 µM): 0.862
- viability ([5]; 1 µM): 1.25
- viability ([6]; 0.0016 µM): 0.576
- viability ([6]; 0.008 µM): 0.507
- viability ([6]; 0.04 µM): 0.517
- viability ([6]; 0.2 µM): 0.508
- viability ([6]; 1 µM): 0.547
- viability [7]: 0.988
- viability ([8]; 0.0016 µM): 0.475
- viability ([8]; 0.008 µM): 0.292
- viability ([8]; 0.04 µM): 0.253
- viability ([8]; 0.2 µM): 0.255
- viability ([8]; 1 µM): 0.262
- viability [9]: 0.777
- viability ([10]; 0.008 µM): 0.988
- viability ([10]; 0.04 µM): 1
- viability ([10]; 0.2 µM): 0.615
- viability ([10]; 1 µM): 0.6
- viability [11]: 1.18
- viability [12]: 0.673
- viability ([13]; 0.0016 µM): 1.1
- viability ([13]; 0.008 µM): 1.09
- viability ([14]; 0.04 µM): 1
- viability ([14]; 1 µM): 0.913
- viability ([15]; 0.2 µM): 0.978
- viability ([15]; 1 µM): 0.978
- viability [16]: 0.972
- viability ([17]; 0.0016 µM): 1.4
- viability ([17]; 0.04 µM): 1.5
- viability ([17]; 1 µM): 1.75
- viability ([18]; 0.0016 µM): 0.848
- viability ([18]; 0.04 µM): 0.729
- viability ([18]; 0.2 µM): 0.687
- viability ([18]; 1 µM): 0.686
- viability ([19]; 0.0016 µM): 0.874
- viability ([19]; 0.008 µM): 0.802
- viability ([20]; 0.0016 µM): 1.1
- viability ([20]; 0.008 µM): 0.982
- viability ([20]; 0.2 µM): 0.978
- viability [21]: 0.338
- viability [22]: 1.1
- viability ([23]; 0.0016 µM): 0.77
- viability ([23]; 0.008 µM): 0.697
- viability ([23]; 0.2 µM): 0.687
- viability ([23]; 1 µM): 0.783
- viability [24]: 1.12
- viability [25]: 1.12
- viability [26]: 0.949
- viability [27]: 1.14
- viability [28]: 0.89
- viability ([29]; 0.0016 µM): 1.2
- viability ([29]; 0.04 µM): 0.913
- viability ([30]; 0.0016 µM): 0.711
- viability ([30]; 0.008 µM): 0.583
- viability ([30]; 0.04 µM): 0.465
- viability ([30]; 0.2 µM): 0.458
- viability ([30]; 1 µM): 0.477
